≈ marks a conversion by molar mass, not a printed value.

Assay type in all cases: cell-based
For experiment [1], the system named is P. aeruginosa ATCC 27853 (wild-type/QC strain). Kind of experiment: broth microdilution MIC assay, P. aeruginosa 27853. Particulars: Pseudomonas aeruginosa, ATCC27853; read-out: MIC, P. aeruginosa 27853. The procedure, abridged: (§1)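 Following CLSI methods, 2-fold compound dilutions are challenged with 5×10^5 CFU/mL bacteria in cation-supplemented Mueller-Hinton broth. After 16-20 hours at 37° C, the lowest well showing no bacterial growth is taken as the MIC.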

In another experiment the test system is S. aureus USA 600. The experiment is described as follows: broth microdilution MIC assay, S. aureus USA600. Particulars: Staphylococcus aureus; S. aureus USA600 (MRSA); read-out: MIC, S. aureus USA600. The procedure, abridged:
as §1
On the technique in general: Broth dilution looks for growth in wells or tubes with falling amounts of substance.

Experiment [2] has as its system S. aureus ATCC 33591 (methicillin-resistant). The experiment is described as follows: broth microdilution MIC assay, S. aureus 33591. Particulars: Staphylococcus aureus, ATCC33591; S. aureus 33591, methicillin-resistant; read-out: MIC, S. aureus 33591. In a few lines: as §1
The subject of experiment [3] is E. coli ATCC 25922 (wild-type/QC strain). Kind of experiment: broth microdilution MIC assay, E. coli 25922. The settings on record: Escherichia coli, ATCC25922; read-out: MIC, E. coli 25922. The procedure, abridged:
as §1

The test system of experiment [4] is P. aeruginosa ΔmexAB-OprM (an efflux pump knockout). The experiment is described as follows: broth microdilution MIC assay, P. aeruginosa ΔmexAB-OprM. Particulars: Pseudomonas aeruginosa, read-out: MIC, P. aeruginosa ΔmexAB-OprM. The procedure, abridged: as §1
The subject of experiment [5] is P. aeruginosa 35151 (hyper-permeable strain). The experiment is described as follows: broth microdilution MIC assay, P. aeruginosa 35151. Particulars: Pseudomonas aeruginosa, read-out: MIC, P. aeruginosa 35151. The procedure, abridged:
as §1

Another experiment concerns P. aeruginosa Paeβ-17. The experiment is described as follows: broth microdilution MIC assay, P. aeruginosa Paeβ-17. The settings on record: Pseudomonas aeruginosa, read-out: MIC, P. aeruginosa Paeβ-17. The procedure, abridged:
as §1

For a further experiment, the system named is S. aureus USA 300. Kind of experiment: broth microdilution MIC assay, S. aureus USA300. The settings on record: Staphylococcus aureus; S. aureus USA300 (MRSA); read-out: MIC, S. aureus USA300. The procedure, abridged: as §1

For orientation: MIC means the smallest concentration in the dilution series that meets the test's criterion for growth inhibition. As to `C[C@@H](O)[C@H]1C(=O)N2C(C(=O)O)=C(SC3CN(CC4CCN(C)CC4)C3)[C@H](C)[C@H]12` [Example 40, (4R,5S,6S)-6-((R)-1-hydroxyethyl)-4-methyl-3-((1-((1-methylpiperidin-4-yl)methyl)azetidin-3-yl)thio)-7-oxo-1-azabicyclo[3.2.0]hept-2-ene-2-carboxylic acid], the MIC is 8 to 32 µg/mL (≈ 19.5 to 78.1 µM) in experiment [1]; 1 to 4 µg/mL (≈ 2.44 to 9.77 µM) in the experiment on S. aureus USA 600; 8 to 32 µg/mL (≈ 19.5 to 78.1 µM) in experiment [2]; less than 1 µg/mL in experiment [3]; 1 to 4 µg/mL (≈ 2.44 to 9.77 µM) in experiment [4]; less than 1 µg/mL in experiment [5]. Also, the figures for the MIC in the experiment on P. aeruginosa Paeβ-17 and in the experiment with S. aureus USA 300 were 8 to 32 µg/mL (≈ 19.5 to 78.1 µM) and 1 to 4 µg/mL (≈ 2.44 to 9.77 µM), respectively.

Consider `C[C@@H](O)[C@H]1C(=O)N2C(C(=O)O)=C(S[C@@H]3CCN(C[C@H]4CC[C@H](CNC(=N)N)CC4)C3)[C@H](C)[C@H]12` [Example 41, (4R,5S,6S)-3-(((R)-1-(((1R,4R)-4-(guanidinomethyl)cyclohexyl)methyl)pyrrolidin-3-yl)thio)-6-((R)-1-hydroxyethyl)-4-methyl-7-oxo-1-azabicyclo[3.2.0]hept-2-ene-2-carboxylic acid], for which the MIC was 1 to 4 µg/mL (≈ 2.08 to 8.34 µM) in experiment [1]; 1 to 4 µg/mL (≈ 2.08 to 8.34 µM) in the experiment with S. aureus USA 600; 1 to 4 µg/mL (≈ 2.08 to 8.34 µM) in experiment [2]; less than 1 µg/mL in experiment [3]; 1 to 4 µg/mL (≈ 2.08 to 8.34 µM) in experiment [4]; less than 1 µg/mL in experiment [5]. Also, the figures for the MIC in the experiment with P. aeruginosa Paeβ-17 and in the experiment with S. aureus USA 300 were 8 to 32 µg/mL (≈ 16.7 to 66.7 µM) and 1 to 4 µg/mL (≈ 2.08 to 8.34 µM), respectively.

For `C[C@@H](O)[C@H]1C(=O)N2C(C(=O)O)=C(SC3CN(C4CCN(C)CC4)C3)[C@H](C)[C@H]12` [Example 42, (4R,5S,6S)-6-((R)-1-hydroxyethyl)-4-methyl-3-((1-(1-methylpiperidin-4-yl)azetidin-3-yl)thio)-7-oxo-1-azabicyclo[3.2.0]hept-2-ene-2-carboxylic acid], the MIC was 8 to 32 µg/mL (≈ 20.2 to 80.9 µM) in experiment [1]; 1 to 4 µg/mL (≈ 2.53 to 10.1 µM) in the experiment with S. aureus USA 600; 8 to 32 µg/mL (≈ 20.2 to 80.9 µM) in experiment [2]; less than 1 µg/mL in experiment [3]; 8 to 32 µg/mL (≈ 20.2 to 80.9 µM) in experiment [4]; less than 1 µg/mL in experiment [5]. Moreover, the MIC is 8 to 32 µg/mL (≈ 20.2 to 80.9 µM) in the experiment on P. aeruginosa Paeβ-17 and 1 to 4 µg/mL (≈ 2.53 to 10.1 µM) in the experiment on S. aureus USA 300.

Take `C[C@@H](O)[C@H]1C(=O)N2C(C(=O)O)=C(S[C@H]3C[C@@H](NC4CCN(C(=N)N)CC4)C3)[C@H](C)[C@H]12` [Example 43, (4R,5S,6S)-3-(((1S,3S)-3-((1-carbamimidoylpiperidin-4-yl)amino)cyclobutyl)thio)-6-((R)-1-hydroxyethyl)-4-methyl-7-oxo-1-azabicyclo[3.2.0]hept-2-ene-2-carboxylic acid]: the MIC in experiment [1] is 1 to 4 µg/mL (≈ 2.29 to 9.14 µM); in the experiment on S. aureus USA 600, less than 1 µg/mL; in experiment [2], 1 to 4 µg/mL (≈ 2.29 to 9.14 µM); in experiment [3], less than 1 µg/mL; in experiment [4] it was 1 to 4 µg/mL (≈ 2.29 to 9.14 µM); in experiment [5], less than 1 µg/mL. Besides, the figures for the MIC with P. aeruginosa Paeβ-17 and in the experiment on S. aureus USA 300 were 8 to 32 µg/mL (≈ 18.3 to 73.1 µM) and less than 1 µg/mL, respectively.

Consider `C[C@@H](O)[C@H]1C(=O)N2C(C(=O)O)=C(S[C@H]3C[C@@H](NC4CCNCC4)C3)[C@H](C)[C@H]12` [Example 44, (4R,5S,6S)-6-((R)-1-hydroxyethyl)-4-methyl-7-oxo-3-(((1S,3S)-3-(piperidin-4-ylamino)cyclobutyl)thio)-1-azabicyclo[3.2.0]hept-2-ene-2-carboxylic acid], for which the minimal inhibitory concentration (MIC) in experiment [1] was 8 to 32 µg/mL (≈ 20.2 to 80.9 µM); with S. aureus USA 600, 1 to 4 µg/mL (≈ 2.53 to 10.1 µM); in experiment [2], 8 to 32 µg/mL (≈ 20.2 to 80.9 µM); in experiment [3], less than 1 µg/mL; in experiment [4], 1 to 4 µg/mL (≈ 2.53 to 10.1 µM); in experiment [5], less than 1 µg/mL. The MIC with P. aeruginosa Paeβ-17 lay in the range of 8 to 32 µg/mL (≈ 20.2 to 80.9 µM); in the experiment on S. aureus USA 300, 1 to 4 µg/mL (≈ 2.53 to 10.1 µM).

Turning to `C[C@@H](O)[C@H]1C(=O)N2C(C(=O)O)=C(S[C@@H]3CCN(C[C@H]4CC[C@@H](CN)CC4)C3)[C@H](C)[C@H]12` [Example 45, (4R,5S,6S)-3-(((R)-1-(((1S,4S)-4-(aminomethyl)cyclohexyl)methyl)pyrrolidin-3-yl)thio)-6-((R)-1-hydroxyethyl)-4-methyl-7-oxo-1-azabicyclo[3.2.0]hept-2-ene-2-carboxylic acid], the MIC in experiment [1] is 1 to 4 µg/mL (≈ 2.29 to 9.14 µM); with S. aureus USA 600, 1 to 4 µg/mL (≈ 2.29 to 9.14 µM); in experiment [2] it was 1 to 4 µg/mL (≈ 2.29 to 9.14 µM); in experiment [3], less than 1 µg/mL; in experiment [4], 1 to 4 µg/mL (≈ 2.29 to 9.14 µM); in experiment [5], less than 1 µg/mL. For the same compound, the MIC in the experiment on P. aeruginosa Paeβ-17 was 8 to 32 µg/mL (≈ 18.3 to 73.1 µM); with S. aureus USA 300, 1 to 4 µg/mL (≈ 2.29 to 9.14 µM).

As for `C[C@@H](O)[C@H]1C(=O)N2C(C(=O)O)=C(SC3CN(C[C@H]4CCN(C(=N)N)C4)C3)[C@H](C)[C@H]12` [Example 46, (4R,5S,6S)-3-((1-(((R)-1-carbamimidoylpyrrolidin-3-yl)methyl)azetidin-3-yl)thio)-6-((R)-1-hydroxyethyl)-4-methyl-7-oxo-1-azabicyclo[3.2.0]hept-2-ene-2-carboxylic acid], the minimal inhibitory concentration (MIC) in experiment [1] is 1 to 4 µg/mL (≈ 2.36 to 9.44 µM); in the experiment with S. aureus USA 600, 1 to 4 µg/mL (≈ 2.36 to 9.44 µM); in experiment [2], 1 to 4 µg/mL (≈ 2.36 to 9.44 µM); in experiment [3], less than 1 µg/mL; in experiment [4], 1 to 4 µg/mL (≈ 2.36 to 9.44 µM); in experiment [5] it was less than 1 µg/mL. Besides, the MIC fell in the range of 8 to 32 µg/mL (≈ 18.9 to 75.6 µM) in the experiment on P. aeruginosa Paeβ-17 and 1 to 4 µg/mL (≈ 2.36 to 9.44 µM) with S. aureus USA 300.

For the origin of these results see patent US20230127944A1, “BROAD-SPECTRUM CARBAPENEMS” (priority 2019, published 2023).
